Here are results for 8 molecules from PubChem BioAssay (NCI).

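Cultured in 96-well plates, cells were exposed to test compound for 48 hours across five concentrations. TGI denotes the concentration required for complete inhibition of growth.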

Holding throughout (experiment): NCI-60 cell line screen, 48 h
The subject of experiment [1] is SW-620 colon.
Experiment [2] concerns NCI/ADR-RES ovarian.
Experiment [3] relates to NCI-H460 lung.
Experiment [4] concerns RPMI-8226 leukemia.
The subject of experiment [5] is EKVX NSCLC.
The subject of experiment [6] is OVCAR-5 ovarian.
Experiment [7] relates to K-562 leukemia.
In experiment [8] the test system is SK-OV-3 ovarian.
Experiment [9] has as its system MDA-N.
Experiment [10] concerns HCC-2998 colon.
Experiment [11] relates to NCI-H23 lung.
For experiment [12], the system named is PC-3 prostate.
Experiment [13] deals with HCT-116 colon.
Experiment [14] relates to IGROV1 ovarian.
In experiment [15] the test system is SK-MEL-2 melanoma.
Experiment [16] has as its system COLO 205 colon.
Experiment [17] relates to MOLT-4 leukemia.
The subject of experiment [18] is BT-549 breast.
Experiment [19] concerns NCI-H522 lung.

`COc1cc2c(cc1OC)C(=O)/C(=C/c1ccc(Cl)cc1)CC2`: the TGI in experiment [1], in experiment [2], in experiment [3], in experiment [4], in [5] and in experiment [6] was over 10 µM throughout. Moreover, the TGI in experiment [7], in experiment [8], in experiment [9], in experiment [10], in [11] and in [12] was over 10 µM in each case. Further, the TGI in experiment [13], in experiment [14], in [15], in experiment [16], in experiment [17] and in [18] was over 10 µM in each case.

In the case of `CCCCCCC(=O)O[C@H]1CC[C@H]2[C@@H]3CCC4C/C(=N/NC(=O)c5cccc6c(=O)c7ccccc7[nH]c56)C=C(C)[C@]4(C)[C@H]3CC[C@]12C` (some centres not stated), the TGI in [1], in [2], in [4], in [5], in [6] and in [7] was over 25 µM throughout. The TGI in experiment [8], in experiment [9], in experiment [10], in [11], in [12] and in experiment [13] was over 25 µM each time. Also, the TGI in [14], in experiment [15], in experiment [16], in [17] and in experiment [18] was over 25 µM in each case.

On to `CC[C@@H]1CC[C@@H]2[C@H](CC[C@]3(C)[C@@H](OS(=O)(=O)c4ccc(C)cc4)CC[C@@H]23)[C@H]1COS(=O)(=O)c1ccc(C)cc1`, for which the TGI in [1], in experiment [2], in experiment [3], in experiment [4], in experiment [5] and in [7] was over 100 µM each time. In addition, the TGI in [9], in experiment [10], in experiment [12], in [13], in experiment [14] and in experiment [17] was over 100 µM throughout. In experiment [18], this molecule registered a TGI of over 100 µM.

As for `Cc1ccc(NC2=CC(=O)C(NO)c3ccccc32)cc1` (configuration not stated), the TGI is over 100 µM in experiment [1]; 5.81 µM in experiment [2]; 13.3 µM in experiment [3]; 8.57 µM in experiment [5]; 25 µM in [6]; 46.6 µM in experiment [8]. Moreover, the TGI was 6.75 µM in [9]; 25.8 µM in [10]; 4.22 µM in experiment [11]; 8.77 µM in [13]; 4.6 µM in [14]; 8.99 µM in experiment [15]. Also, the TGI is 8.72 µM in experiment [16], 6.23 µM in [17] and 26.4 µM in experiment [18].

Consider `Nc1cccc(/C=C/C(=O)N2CCN(CCOC(c3ccccc3)c3ccccc3)CC2)c1`, for which the TGI was 35 µM in experiment [1]; 37.3 µM in experiment [2]; 30.6 µM in experiment [3]; 26.7 µM in [4]; 36.2 µM in experiment [5]; 34.6 µM in experiment [6]. For the same molecule, the TGI in [7] is 26.7 µM; in experiment [8], 32.7 µM; in [9], 35.9 µM; in experiment [11], 35.5 µM; in [19] it was 28.7 µM; in experiment [12] it was 28.9 µM. Besides, the TGI in experiment [13] came to 28.9 µM; in [14] it was 33.6 µM; in experiment [15], 29.7 µM; in experiment [16], 33.1 µM; in experiment [17], 21.2 µM; in experiment [18] it was 29.2 µM.

For `COc1cc(CO)c(CC(=O)NCCCc2ccccc2)cc1OC`, the TGI in experiment [1], in experiment [2], in experiment [3], in experiment [5], in [6] and in experiment [7] was over 100 µM throughout. Moreover, the TGI in experiment [9], in [10], in experiment [11], in [12], in experiment [13] and in experiment [14] was over 100 µM each time. The TGI in experiment [15], in experiment [16], in experiment [17] and in experiment [18] was over 100 µM each time.

Turning to `CCOP(=O)(OCC)C(C)(CC)N/C(=N/C(NC(C)=O)(C(F)(F)F)C(F)(F)F)NC1=NC(C(F)(F)F)(C(F)(F)F)N=C(C(F)(F)F)O1` (configuration not stated), the TGI in [1] is over 100 µM; in experiment [2], 47.4 µM; in experiment [3], over 100 µM; in [4] it was 73.7 µM; in [5], over 100 µM; in [6], over 100 µM. For the same molecule, the TGI in [7] is over 100 µM; in experiment [8], over 100 µM; in [9], over 100 µM; in [10], over 100 µM; in [11], 91.5 µM; in experiment [19] it was 77.7 µM. Moreover, the TGI is 77.6 µM in [12]; over 100 µM in experiment [13]; over 100 µM in experiment [14]; 62.3 µM in [15]; 29.8 µM in experiment [16]; 45.3 µM in [17].

Consider `COc1ccc(CC(=O)N2CCC3(C)CC(=O)CC=C23)cc1OC` (configuration not stated), for which the TGI in experiment [1], in experiment [2], in experiment [4], in experiment [5], in [6] and in experiment [7] was over 100 µM each time. The TGI in [8], in [9], in [11], in experiment [19], in experiment [12] and in experiment [13] was over 100 µM in each case. The TGI in experiment [14], in [15], in experiment [16], in experiment [17] and in experiment [18] was over 100 µM in each case.
